{"source": "patent US20200377496A1", "about": "“INDOLE AND BENZIMIDAZOLE DERIVATIVES AS DUAL 5-HT2A and 5-HT6 RECEPTOR ANTAGONISTS” (ADAMED PHARMA, S.A., priority 2018, published 2020)", "key": {"[1]": {"biological_target": "human 5-HT2A receptor (Homo sapiens, UniProt P28223)", "sequence (P28223 whole entry)": "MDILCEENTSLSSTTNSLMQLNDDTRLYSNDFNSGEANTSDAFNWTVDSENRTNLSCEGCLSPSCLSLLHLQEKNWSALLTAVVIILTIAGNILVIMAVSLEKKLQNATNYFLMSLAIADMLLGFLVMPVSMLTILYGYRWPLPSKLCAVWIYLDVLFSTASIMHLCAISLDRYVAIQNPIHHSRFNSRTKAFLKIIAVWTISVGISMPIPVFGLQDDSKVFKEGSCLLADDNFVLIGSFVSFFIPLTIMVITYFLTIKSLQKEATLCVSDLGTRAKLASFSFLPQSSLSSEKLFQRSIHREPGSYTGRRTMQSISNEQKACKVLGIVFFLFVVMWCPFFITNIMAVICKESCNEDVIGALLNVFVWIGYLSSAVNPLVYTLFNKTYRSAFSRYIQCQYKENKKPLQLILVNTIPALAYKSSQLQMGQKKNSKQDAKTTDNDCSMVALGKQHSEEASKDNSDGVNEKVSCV", "assay": "5-HT2A receptor binding assay ([3H]-ketanserin radioligand)", "protocol": "(§1) Preparation of Solutions of Test and Reference Compounds.\n(§2) 1 mM stock solutions of tested compounds were prepared in DMSO. Serial dilutions of compounds were prepared in 96-well microplate in assay buffers using automated pipetting system epMotion 5070 (Eppendorf). Each compound was tested in 10 concentrations from 1.0E-6 to 1.0E-11 M (final concentration).\n5-HT2A Receptor Binding Assay.\nRadioligand binding was performed using membranes from CHO K1 cells stably transfected with the human 5-HT2A receptor (PerkinElmer). All assays were carried out in duplicates. 50 μl working solution of the tested compounds, 50 μl [3H]-ketanserin (final concentration 1 nM) and 150 μl diluted membranes (7 μg protein per well) prepared in assay buffer (50 mM Tris, pH 7.4, 4 mM CaCl2, 0.1% ascorbic acid) were transferred to polypropylene 96-well microplate using 96-wells pipetting station Rainin Liquidator (MettlerToledo). Mianserin (10 μM) was used to define nonspecific binding. Microplate was covered with a sealing tape, mixed and incubated for 60 minutes at 27° C. The reaction was terminated by rapid filtration through GF/B filter mate presoaked with 0.5% polyethyleneimine for 30 minutes. Ten rapid washes with 200 μl 50 mM Tris buffer (4° C., pH 7.4) were performed using automated harvester system Harvester-96 MACH III FM (Tomtec). The filter mates were dried at 37° C. in forced air fan incubator and then solid scintilator MeltiLex was melted on filter mates at 90° C. for 5 minutes. Radioactivity was counted in MicroBeta2 scintillation counter (PerkinElmer). Data were fitted to a one-site curve-fitting equation with Prism 6 (GraphPad Software) and Ki values were estimated from the Cheng-Prusoff equation."}, "[2]": {"biological_target": "5-HT6 receptors (Homo sapiens, UniProt P50406)", "sequence (P50406 whole entry)": "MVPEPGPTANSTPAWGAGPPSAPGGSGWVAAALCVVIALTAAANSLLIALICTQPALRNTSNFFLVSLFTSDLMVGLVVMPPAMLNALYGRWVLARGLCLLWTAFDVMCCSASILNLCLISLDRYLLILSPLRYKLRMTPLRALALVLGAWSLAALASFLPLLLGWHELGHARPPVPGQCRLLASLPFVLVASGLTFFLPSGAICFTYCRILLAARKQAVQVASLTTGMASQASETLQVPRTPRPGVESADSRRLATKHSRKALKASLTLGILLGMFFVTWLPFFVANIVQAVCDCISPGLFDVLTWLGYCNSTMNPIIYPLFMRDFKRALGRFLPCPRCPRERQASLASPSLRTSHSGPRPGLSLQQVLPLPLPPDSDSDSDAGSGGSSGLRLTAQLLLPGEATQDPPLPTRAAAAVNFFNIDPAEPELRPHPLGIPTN", "assay": "5-HT6 receptor binding assay ([3H]-LSD radioligand)", "conditions": "membranes from CHO-K1 cells with human 5-HT6 receptor, [3H]-LSD 1 nM", "protocol": "as §1, §2\n5-HT6 Receptor Binding Assay.\nRadioligand binding was performed using membranes from CHO-K1 cells stably transfected with the human 5-HT6 receptor (PerkinElmer). All assays were carried out in duplicates. 50 μl working solution of the tested compounds, 50 μl [3H]-LSD (final concentration 1 nM) and 150 μl diluted membranes (8 μg protein per well) prepared in assay buffer (50 mM Tris, pH 7.4, 10 mM MgCl2, 0.1 mM EDTA) were transferred to polypropylene 96 well microplate using 96-wells pipetting station Rainin Liquidator (MettlerToledo). Methiothepin (10 μM) was used to define nonspecific binding. Microplate was covered with a sealing tape, mixed and incubated for 60 minutes at 37° C. The reaction was terminated by rapid filtration through GF/A filter mate presoaked with 0.5% polyethyleneimine for 30 minutes. Ten rapid washes with 200 μl 50 mM Tris buffer (4° C., pH 7.4) were performed using automated harvester system Harvester-96 MACH III FM (Tomtec). The filter mates were dried at 37° C. in forced air fan incubator and then solid scintilator MeltiLex was melted on filter mates at 90° C. for 5 minutes. Radioactivity was counted in MicroBeta2 scintillation counter (PerkinElmer). Data were fitted to a one-site curve-fitting equation with Prism 6 (GraphPad Software) and Ki values were estimated from the Cheng-Prusoff equation."}, "[3]": {"biological_target": "human GPCR 5-HT2A (Homo sapiens, UniProt P28223)", "sequence (P28223 whole entry)": "as the sequence (P28223 whole entry) above", "assay": "Cellular aequorin-based functional assay, 5-HT2A", "format": "cell-based", "conditions": "for 5-HT2A AGO EC50 [nM]: agonist mode, CHO-K1 aequorin cells", "protocol": "as §1\n(§3) 1 mM stock solutions of the tested compounds were prepared in DMSO. Serial dilutions were prepared in 96-well microplate in assay buffers using automated pipetting system epMotion 5070 (Eppendorf). Two independent experiments in duplicates were performed and 6 to 10 concentrations were tested.\n(§4) 5-HT2A and 5-HT6 Functional Activity Assays.\n(§5) Cellular aequorin-based functional assays were performed with γ-irradiated recombinant CHO-K1 cells expressing mitochondrially-targeted Aequorin, human GPCR (5-HT2A or 5-HT6) and the promiscuous G protein α16 (PerkinElemer). Assays were performed according to the standard protocol provided by the manufacturer. After thawing, cells were transferred to assay buffer (DMEM/HAM's F12 with 0.1% protease-free BSA) and centrifuged. Cell pellet was resuspended in assay buffer and coelenterazine h was added at final concentrations of 5 μM. Cell suspension was incubated at 21° C., protected from light with constant agitation, for 4 hours and then diluted with assay buffer to a concentration of 250,000 cells/ml. After 1 hour incubation 50 yl cell suspension was dispensed using automatic injectors built in radiometric and luminescence plate counter MicroBeta2 LumiJET (PerkinElmer, USA) into white opaque 96-well microplate preloaded with tested compounds. Immediate light emission generated following calcium mobilization was recorded for 30-60 seconds. In antagonist mode, after 15-30 minutes incubation reference agonist was added to the above assay mix and light emission was recorded again. Final concentration of reference agonist was equal EC80: serotonin 40 nM for 5-HT6 receptor and α-methylserotonin 30 nM for 5-HT2A receptor. The assays were performed in the agonist mode (5-HT6 AGO and 5-HT2A AGO) as well as antagonist mode (5-HT6 ANT and 5-HT2A ANT).\n(§6) IC50 and EC50 were determined by non-linear regression analysis using GraphPad Prism 6.0 software. The log IC50 was used to obtain the Kb by applying the Cheng-Prusoff approximation."}, "[4]": {"biological_target": "human GPCR 5-HT6 (Homo sapiens, UniProt P50406)", "sequence (P50406 whole entry)": "as the sequence (P50406 whole entry) above", "assay": "Cellular aequorin-based functional assay, 5-HT6", "format": "cell-based", "conditions": "for 5-HT6 AGO EC50 [nM]: agonist mode, CHO-K1 aequorin cells; for Kb: antagonist mode, reference agonist serotonin 40 nM (EC80), read-out: 5-HT6 ANT Kb", "protocol": "as §1, §3, §4, §5, §6"}}, "note": "Like-named read-outs stand apart in the source and are kept apart here."}
{"molecule": "FC(F)(F)c1nc2c(N3CCNCC3)cccc2n1Cc1ccccc1", "note": "[Compound 1, 1-benzyl-4-(piperazin-1-yl)-2-(trifluoromethyl)-1H-benzimidazole]", "values": [{"measurement": "Ki", "setting": "[1]; membranes from CHO K1 cells with human 5-HT2A receptor, [3H]-ketanserin 1 nM, read-out: 5-HT2A Ki", "value": 4.2, "unit": "nM"}, {"measurement": "Ki", "setting": "[2]", "value": 1.3, "unit": "nM"}, {"measurement": "5-HT2A AGO EC50 [nM]", "setting": "[3]", "value": "N.C."}, {"measurement": "Kb", "setting": "[3]; antagonist mode, reference agonist α-methylserotonin 30 nM (EC80), read-out: 5-HT2A ANT Kb", "value": 18, "unit": "nM"}, {"measurement": "5-HT6 AGO EC50 [nM]", "setting": "[4]", "value": "N.C."}, {"measurement": "Kb", "setting": "[4]", "value": 2.5, "unit": "nM"}]}
{"molecule": "FC(F)(F)c1cc2c(N3CCNCC3)cccc2n1Cc1ccco1", "note": "[Compound 17, 1-(furan-2-ylmethyl)-4-(piperazin-1-yl)-2-(trifluoromethyl)-1H-indole]", "values": [{"measurement": "Ki", "setting": "[1]", "value": 1.6, "unit": "nM"}, {"measurement": "Ki", "setting": "[2]", "value": 0.62, "unit": "nM"}, {"measurement": "Kb", "setting": "[3]", "value": 10, "unit": "nM"}, {"measurement": "5-HT2A AGO EC50 [nM]", "setting": "[3]", "value": "N.C."}, {"measurement": "5-HT6 AGO EC50 [nM]", "setting": "[4]", "value": "N.C."}, {"measurement": "Kb", "setting": "[4]", "value": 0.47, "unit": "nM"}]}
